In the assay the target is STING (Homo sapiens, UniProt Q86WV6, G230A/H232R/R293Q/R71H). As to the kind of experiment: STING reporter assay in THP1-Dual KO-IFNAR2 cells (2′3′cGAMP stimulation, luciferase reporter). It counts as cell-based. To be noted: 15 μM 2′3′cGAMP stimulation, 24 h, read-out: Pharmaron, THP1_IFNAR2 STING 24 h Luci Normalized: GeoMean EC50. Put shortly:
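THP1-Dual KO-IFNAR2 cells (2×10E6 cells/mL) with compounds at 0.0017-100 μM final, stimulated with 15 μM final 2′3′cGAMP delivered by Lipofectamine 2000; 24 h at 37 °C. Luciferase in supernatant read with QUANTI-Luc Plus; EC50 derived from luminescence.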
STING, sequence (Q86WV6 whole entry R71H/G230A/H232R/R293Q): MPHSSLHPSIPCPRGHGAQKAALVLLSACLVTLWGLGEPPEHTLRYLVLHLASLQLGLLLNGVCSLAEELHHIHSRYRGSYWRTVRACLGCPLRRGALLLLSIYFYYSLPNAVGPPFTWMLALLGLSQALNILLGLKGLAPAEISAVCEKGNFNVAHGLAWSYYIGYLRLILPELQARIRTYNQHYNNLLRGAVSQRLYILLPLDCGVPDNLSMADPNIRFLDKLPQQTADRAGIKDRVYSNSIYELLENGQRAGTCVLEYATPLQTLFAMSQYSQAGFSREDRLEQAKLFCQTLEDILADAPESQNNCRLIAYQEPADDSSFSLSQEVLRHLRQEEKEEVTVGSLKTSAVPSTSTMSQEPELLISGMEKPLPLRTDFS
As for `C[C@H]1OC[C@H]1C(=O)Nc1c[nH]c2ccc(O[C@H]3C[C@H](c4ccc(C(F)(F)F)cc4)C3)cc12` [Compound 424, (2R,3R)-2-methyl-N-(5-(trans-3-(4-(trifluoromethyl)phenyl)cyclobutoxy)-1H-indol-3-yl)oxetane-3-carboxamide], the half-maximal effective concentration (EC50) lay within 200 to 1000 nM. The same measure for `CO[C@H]1C[C@](C)(C(=O)Nc2c[nH]c3ccc(OCC[C@@H]4C[C@@H]5CN(CC(F)(F)F)C[C@@H]5C4)cc23)C1` [Compound 427, trans-3-methoxy-1-methyl-N-(5-(2-((3aR,5r,6aS)-2-(2,2,2-trifluoroethyl)octahydrocyclopenta[c]pyrrol-5-yl)ethoxy)-1H-indol-3-yl)cyclobutane-1-carboxamide]: 200 to 1000 nM; for `CC1OC(C)C1C(=O)Nc1c[nH]c2ccc(OCc3ccc(C(F)(F)F)cc3)cc12` (stereo not shown) [Compound 428, 2,4-dimethyl-N-(5-((4-(trifluoromethyl)benzyl)oxy)-1H-indol-3-yl)oxetane-3-carboxamide]: 200 to 1000 nM; for `CC[C@@H](O)C(=O)Nc1c[nH]c2ccc(O[C@H]3C[C@H](c4ccc(C(F)(F)F)cc4)C3)cc12` [Compound 429, (R)-2-hydroxy-N-(5-(trans-3-(4-(trifluoromethyl)phenyl)cyclobutoxy)-1H-indol-3-yl)butanamide]: 200 to 1000 nM.

Consider `CC[C@H](O)C(=O)Nc1c[nH]c2ccc(OCCc3ccc(C(F)(F)F)cc3)cc12` [Compound 430, (S)-2-hydroxy-N-(5-(4-(trifluoromethyl)phenethoxy)-1H-indol-3-yl)butanamide], for which the EC50 is 40 to 200 nM. The same measure for `CC[C@@H](O)C(=O)Nc1c[nH]c2ccc(OCCc3ccc(C(F)(F)F)cc3)cc12` [Compound 431, (R)-2-hydroxy-N-(5-(4-(trifluoromethyl)phenethoxy)-1H-indol-3-yl)butanamide]: 40 to 200 nM; for `O=C(CC(O)C(F)(F)F)Nc1c[nH]c2ccc(OCC[C@@H]3C[C@@H]4CN(CC(F)(F)F)C[C@@H]4C3)cc12` (stereo partly drawn) [Compound 433, 4,4,4-trifluoro-3-hydroxy-N-(5-(2-((3aR,5r,6aS)-2-(2,2,2-trifluoroethyl)octahydrocyclopenta[c]pyrrol-5-yl)ethoxy)-1H-indol-3-yl)butanamide]: 200 to 1000 nM. For the compound `O=C(COCC(F)(F)F)Nc1c[nH]c2ccc(OCC[C@@H]3C[C@@H]4CN(CC(F)(F)F)C[C@@H]4C3)cc12` [Compound 434, 2-(2,2,2-trifluoroethoxy)-N-(5-(2-((3aR,5r,6aS)-2-(2,2,2-trifluoroethyl)octahydrocyclopenta[c]pyrrol-5-yl)ethoxy)-1H-indol-3-yl)acetamide], the EC50 was in the range of 40 to 200 nM. The same measure for `CC(=O)Nc1c[nH]c2ccc(O[C@H]3C[C@H](c4ccc(C(F)(F)F)cc4C)C3)cc12` [Compound 435, N-(5-(trans-3-(2-methyl-4-(trifluoromethyl)phenyl)cyclobutoxy)-1H-indol-3-yl)acetamide]: 40 to 200 nM; for `CC(=O)Nc1c[nH]c2ccc(OC3CCc4cc(C(F)(F)F)ccc4C3)cc12` (stereo not shown) [Compound 436, N-(5-((6-(trifluoromethyl)-1,2,3,4-tetrahydronaphthalen-2-yl)oxy)-1H-indol-3-yl)acetamide]: 40 to 200 nM; for `CC(=O)Nc1c[nH]c2ccc(OCC3CCc4ccc(C(F)(F)F)cc4C3)cc12` (stereo not shown) [Compound 437, N-(5-((7-(trifluoromethyl)-1,2,3,4-tetrahydronaphthalen-2-yl)methoxy)-1H-indol-3-yl)acetamide]: 200 to 1000 nM. For `CC(=O)Nc1c[nH]c2ccc(CCOc3ccc(OC(F)(F)F)c(F)c3)cc12` [Compound 438, N-(5-{2-[3-fluoro-4-(trifluoromethoxy)phenoxy]ethyl}-1H-indol-3-yl)acetamide] the value was 40 to 200 nM. For `CC(=O)Nc1c[nH]c2ccc(CCOc3cncc(C(F)F)c3)cc12` [Compound 439, N-[5-(2-{[5-(difluoromethyl)pyridin-3-yl]oxy}ethyl)-1H-indol-3-yl]acetamide] the value was 5000 to 100000 nM; for `CC(=O)Nc1c[nH]c2ccc(CCOc3ccc(C(F)(F)F)cc3C#N)cc12` [Compound 440, N-(5-{2-[2-cyano-4-(trifluoromethyl)phenoxy]ethyl}-1H-indol-3-yl)acetamide], 1000 to 5000 nM; for `CC(=O)Nc1c[nH]c2ccc(CCOc3cccc(CC(F)(F)F)c3)cc12` [Compound 441, N-(5-{2-[3-(2,2,2-trifluoroethyl)phenoxy]ethyl}-1H-indol-3-yl)acetamide], 40 to 200 nM. With `CC(=O)Nc1c[nH]c2ccc(CCOc3ccc(CC(F)(F)F)cc3)cc12` [Compound 442, N-(5-{2-[4-(2,2,2-trifluoroethyl)phenoxy]ethyl}-1H-indol-3-yl)acetamide], the EC50 was 40 to 200 nM. The same measure for `CC(=O)Nc1c[nH]c2ccc(O[C@@H]3C[C@@H](c4ccc(C(F)(F)F)cc4)[C@H]3C)cc12` [Compound 443, N-(5-((1R,2R,3R)-2-methyl-3-(4-(trifluoromethyl)phenyl)cyclobutoxy)-1H-indol-3-yl)acetamide]: 200 to 1000 nM; for `CC(=O)Nc1c[nH]c2ccc(OCC3Cc4cnn(CC(F)(F)F)c4C3)cc12` (stereo not shown) [Compound 444, N-(5-((1-(2,2,2-trifluoroethyl)-1,4,5,6-tetrahydrocyclopenta[c]pyrazol-5-yl)methoxy)-1H-indol-3-yl)acetamide]: 5000 to 100000 nM. For `C[C@]1(C(=O)Nc2c[nH]c3ccc(OCCc4ccc(C(F)(F)F)cc4)cc23)C[C@@H](O)C1` [Compound 445, (cis)-3-hydroxy-1-methyl-N-(5-(4-(trifluoromethyl)phenethoxy)-1H-indol-3-yl)cyclobutane-1-carboxamide] the value was 40 to 200 nM; for `C[C@]1(C(=O)Nc2c[nH]c3ccc(OCCc4ccc(C(F)(F)F)cc4)cc23)C[C@H](O)C1` [Compound 446, trans-3-hydroxy-1-methyl-N-(5-(4-(trifluoromethyl)phenethoxy)-1H-indol-3-yl)cyclobutane-1-carboxamide], 40 to 200 nM. For `CC(=O)Nc1c[nH]c2ccc(OCC3Cc4cn(CC(F)(F)F)nc4C3)cc12` (stereo not shown) [Compound 447, N-(5-((2-(2,2,2-trifluoroethyl)-2,4,5,6-tetrahydrocyclopenta[c]pyrazol-5-yl)methoxy)-1H-indol-3-yl)acetamide] the value was 5000 to 100000 nM; for `CC(=O)Nc1c[nH]c2ccc(O[C@@H]3C[C@@H](c4ccc(C(F)(F)F)cc4)[C@@H]3C)cc12` [Compound 448, N-(5-((1R,2S,3R)-2-methyl-3-(4-(trifluoromethyl)phenyl)cyclobutoxy)-1H-indol-3-yl)acetamide], 40 to 200 nM; for `CC(=O)Nc1c[nH]c2ccc(CCOc3ccc4ccncc4c3)cc12` [Compound 449, N-{5-[2-(isoquinolin-7-yloxy)ethyl]-1H-indol-3-yl}acetamide], 1000 to 5000 nM.

For the compound `CC(=O)Nc1c[nH]c2ccc(CCOc3ccc(Cl)cc3C(F)(F)F)cc12` [Compound 450, N-(5-{2-[4-chloro-2-(trifluoromethyl)phenoxy]ethyl}-1H-indol-3-yl)acetamide], the EC50 was in the range of 200 to 1000 nM. For the compound `CC(=O)Nc1c[nH]c2ccc(CCOc3ccc(-c4ccncc4)cc3)cc12` [Compound 451, N-(5-{2-[4-(pyridin-4-yl)phenoxy]ethyl} -1H-indol-3-yl)acetamide], the EC50 lay in the range of 1000 to 5000 nM.

The term EC50 denotes the midpoint of the concentration-response curve.

Source of the values: US12503436B2, “Compounds and compositions for treating conditions associated with STING activity” (NOVARTIS PHARMA AG, priority 2021, dated 2025).
